Reference: PubChem BioAssay AID504473 (NMMLSC, 2011)
Calls of active or inactive are those of the source.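 The calls were made as follows: active = GFP ratio to DMSO above 1.5 or below 0.66; inactive = the rest.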

Columns and labels:
Assay in all cases: TOR pathway GFP reporter clone modulation in yeast – S. cerevisiae, GFP-tagged clone panel, flow cytometry (AID 504473);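 also: median GFP fluorescence of the cells measured by high-throughput flow cytometry; test concentration not given here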
YOR136W = settings: S. cerevisiae GFP-tagged strains, 3 h
YLR287C-A = settings: S. cerevisiae GFP-tagged strains, 3 h
YEL007W = settings: S. cerevisiae GFP-tagged strains, 3 h
YIL051C = settings: S. cerevisiae GFP-tagged strains, 3 h
YHR087W = settings: S. cerevisiae GFP-tagged strains, 3 h
YOR375C = settings: S. cerevisiae GFP-tagged strains, 3 h
YDL130W = settings: S. cerevisiae GFP-tagged strains, 3 h
YEL071W = settings: S. cerevisiae GFP-tagged strains, 3 h
YHR141C = settings: S. cerevisiae GFP-tagged strains, 3 h
YBR139W = settings: S. cerevisiae GFP-tagged strains, 3 h
[1] = biological target: General amino acid permease AGP1 (Saccharomyces cerevisiae S288c) (UniProt P25376); settings: S. cerevisiae GFP-tagged strains, 3 h, YCL025C
YBR072W = settings: S. cerevisiae GFP-tagged strains, 3 h
YMR307W = settings: S. cerevisiae GFP-tagged strains, 3 h
YIL066C = settings: S. cerevisiae GFP-tagged strains, 3 h
YBR208C = settings: S. cerevisiae GFP-tagged strains, 3 h
YHR018C = settings: S. cerevisiae GFP-tagged strains, 3 h
YKL086W = settings: S. cerevisiae GFP-tagged strains, 3 h
YDR453C = settings: S. cerevisiae GFP-tagged strains, 3 h
YJL056C = settings: S. cerevisiae GFP-tagged strains, 3 h
YIL069C = settings: S. cerevisiae GFP-tagged strains, 3 h
YNL068C = settings: S. cerevisiae GFP-tagged strains, 3 h
YLR058C = settings: S. cerevisiae GFP-tagged strains, 3 h
YPL220W = settings: S. cerevisiae GFP-tagged strains, 3 h
YLL026W = settings: S. cerevisiae GFP-tagged strains, 3 h
YJR148W = settings: S. cerevisiae GFP-tagged strains, 3 h
YAL060W = settings: S. cerevisiae GFP-tagged strains, 3 h
YPL111W = settings: S. cerevisiae GFP-tagged strains, 3 h
YLR142W = settings: S. cerevisiae GFP-tagged strains, 3 h
YLR367W = settings: S. cerevisiae GFP-tagged strains, 3 h
YMR120C = settings: S. cerevisiae GFP-tagged strains, 3 h
YGL135W = settings: S. cerevisiae GFP-tagged strains, 3 h
YOR038C = settings: S. cerevisiae GFP-tagged strains, 3 h
YOR182C = settings: S. cerevisiae GFP-tagged strains, 3 h
YGR034W = settings: S. cerevisiae GFP-tagged strains, 3 h
YBR248C = settings: S. cerevisiae GFP-tagged strains, 3 h
YHL021C = settings: S. cerevisiae GFP-tagged strains, 3 h
YCR005C = settings: S. cerevisiae GFP-tagged strains, 3 h
YPL131W = settings: S. cerevisiae GFP-tagged strains, 3 h
YPR184W = settings: S. cerevisiae GFP-tagged strains, 3 h
YJL144W = settings: S. cerevisiae GFP-tagged strains, 3 h
YNL214W = settings: S. cerevisiae GFP-tagged strains, 3 h
YPR145W = settings: S. cerevisiae GFP-tagged strains, 3 h
YCR002C = settings: S. cerevisiae GFP-tagged strains, 3 h
YOR371C = settings: S. cerevisiae GFP-tagged strains, 3 h
YLR237W = settings: S. cerevisiae GFP-tagged strains, 3 h
YML128C = settings: S. cerevisiae GFP-tagged strains, 3 h
YMR105C = settings: S. cerevisiae GFP-tagged strains, 3 h
YMR251W-A = settings: S. cerevisiae GFP-tagged strains, 3 h
YFR031C-A = settings: S. cerevisiae GFP-tagged strains, 3 h
YNL015W = settings: S. cerevisiae GFP-tagged strains, 3 h
YAL061W = settings: S. cerevisiae GFP-tagged strains, 3 h
YML026C = settings: S. cerevisiae GFP-tagged strains, 3 h
YGL147C = settings: S. cerevisiae GFP-tagged strains, 3 h
YGL062W = settings: S. cerevisiae GFP-tagged strains, 3 h
YDR399W = settings: S. cerevisiae GFP-tagged strains, 3 h
YPR132W = settings: S. cerevisiae GFP-tagged strains, 3 h
YCL064C = settings: S. cerevisiae GFP-tagged strains, 3 h
YML004C = settings: S. cerevisiae GFP-tagged strains, 3 h
YOR173W = settings: S. cerevisiae GFP-tagged strains, 3 h
YEL060C = settings: S. cerevisiae GFP-tagged strains, 3 h
YML063W = settings: S. cerevisiae GFP-tagged strains, 3 h
YHR203C = settings: S. cerevisiae GFP-tagged strains, 3 h
YGR088W = settings: S. cerevisiae GFP-tagged strains, 3 h
YHR144C = settings: S. cerevisiae GFP-tagged strains, 3 h
YGR019W = settings: S. cerevisiae GFP-tagged strains, 3 h
YNL142W = settings: S. cerevisiae GFP-tagged strains, 3 h
YLR109W = settings: S. cerevisiae GFP-tagged strains, 3 h
YGL036W = settings: S. cerevisiae GFP-tagged strains, 3 h
YDR382W = settings: S. cerevisiae GFP-tagged strains, 3 h
YER151C = settings: S. cerevisiae GFP-tagged strains, 3 h
YER117W = settings: S. cerevisiae GFP-tagged strains, 3 h
YER081W = settings: S. cerevisiae GFP-tagged strains, 3 h
YML034W = settings: S. cerevisiae GFP-tagged strains, 3 h
YKL103C = settings: S. cerevisiae GFP-tagged strains, 3 h
YKR039W = settings: S. cerevisiae GFP-tagged strains, 3 h
YDL205C = settings: S. cerevisiae GFP-tagged strains, 3 h
YKR094C = settings: S. cerevisiae GFP-tagged strains, 3 h
YDR070C = settings: S. cerevisiae GFP-tagged strains, 3 h
YIL043C = settings: S. cerevisiae GFP-tagged strains, 3 h
YEL063C = settings: S. cerevisiae GFP-tagged strains, 3 h
YDL204W = settings: S. cerevisiae GFP-tagged strains, 3 h
YNL112W = settings: S. cerevisiae GFP-tagged strains, 3 h
YKR093W = settings: S. cerevisiae GFP-tagged strains, 3 h
YKL119C = settings: S. cerevisiae GFP-tagged strains, 3 h
YER156C = settings: S. cerevisiae GFP-tagged strains, 3 h
YLR185W = settings: S. cerevisiae GFP-tagged strains, 3 h
YIL052C = settings: S. cerevisiae GFP-tagged strains, 3 h
YFR053C = settings: S. cerevisiae GFP-tagged strains, 3 h
YBL087C = settings: S. cerevisiae GFP-tagged strains, 3 h
YLL039C = settings: S. cerevisiae GFP-tagged strains, 3 h
YPL265W = settings: S. cerevisiae GFP-tagged strains, 3 h
YGR121C = settings: S. cerevisiae GFP-tagged strains, 3 h
YOR063W = settings: S. cerevisiae GFP-tagged strains, 3 h
YPL150W = settings: S. cerevisiae GFP-tagged strains, 3 h
YNR001C = settings: S. cerevisiae GFP-tagged strains, 3 h
YOL052C-A = settings: S. cerevisiae GFP-tagged strains, 3 h

Measured: GFP ratio to DMSO

Chain of General amino acid permease AGP1 (Saccharomyces cerevisiae S288c) (P25376 whole entry, looked up): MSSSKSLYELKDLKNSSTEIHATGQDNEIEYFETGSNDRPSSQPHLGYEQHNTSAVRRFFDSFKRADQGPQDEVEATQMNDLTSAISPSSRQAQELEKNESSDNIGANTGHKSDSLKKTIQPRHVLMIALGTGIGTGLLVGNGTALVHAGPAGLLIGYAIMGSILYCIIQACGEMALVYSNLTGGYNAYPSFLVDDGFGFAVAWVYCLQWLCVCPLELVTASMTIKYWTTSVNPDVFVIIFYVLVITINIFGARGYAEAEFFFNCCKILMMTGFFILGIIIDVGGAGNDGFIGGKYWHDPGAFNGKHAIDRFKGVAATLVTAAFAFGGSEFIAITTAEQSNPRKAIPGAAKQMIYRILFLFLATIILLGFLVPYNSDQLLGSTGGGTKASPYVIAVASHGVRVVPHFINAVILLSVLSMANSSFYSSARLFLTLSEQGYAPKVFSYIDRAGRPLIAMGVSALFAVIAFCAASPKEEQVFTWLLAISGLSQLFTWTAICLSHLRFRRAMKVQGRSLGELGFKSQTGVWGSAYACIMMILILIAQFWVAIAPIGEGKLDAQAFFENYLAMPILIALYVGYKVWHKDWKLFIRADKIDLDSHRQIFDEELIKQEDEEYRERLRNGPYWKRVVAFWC

CNc1nc(N)c([N+](=O)[O-])c(Nc2ccccc2OC)n1
inactive: YOR136W 0.793 | YEL007W 0.721 | YIL051C 0.669 | YOR375C 0.81 | YEL071W 0.904 | YHR141C 1.25 | YBR139W 0.664 | [1] 0.804 | YMR307W 0.757 | YIL066C 0.693 | YBR208C 0.657 | YKL086W 0.777 | YJL056C 0.664 | YIL069C 0.717 | YNL068C 0.738 | YLL026W 0.761 | YJR148W 0.822 | YPL111W 0.779 | YLR142W 0.7 | YLR367W 0.847 | YGL135W 1.01 | YOR038C 0.771 | YBR248C 0.723 | YHL021C 0.726 | YCR005C 0.783 | YPL131W 0.657 | YPR184W 0.669 | YNL214W 0.786 | YPR145W 0.81 | YOR371C 0.67 | YML128C 0.697 | YMR105C 0.849 | YAL061W 0.668 | YGL147C 0.902 | YGL062W 0.915 | YCL064C 0.707 | YML004C 0.689 | YOR173W 0.726 | YHR203C 0.792 | YGR088W 0.767 | YHR144C 0.68 | YGR019W 0.679 | YNL142W 0.756 | YER151C 0.745 | YML034W 0.676 | YKL103C 0.755 | YKR039W 1.41 | YDL205C 0.742 | YKR094C 0.863 | YIL043C 0.829 | YEL063C 0.998 | YDL204W 0.703 | YNL112W 0.867 | YKL119C 0.774 | YER156C 0.819 | YLR185W 1.38 | YGR121C 0.737 | YOR063W 0.813 | YPL150W 0.677 | YNR001C 0.75
active: YLR287C-A 0.309 | YHR087W 1.71 | YDL130W 0.302 | YBR072W 3.23 | YHR018C 0.649 | YDR453C 5.92 | YLR058C 0.606 | YPL220W 0.579 | YAL060W 0.645 | YMR120C 0.433 | YOR182C 3.17 | YGR034W 0.607 | YJL144W 7.28 | YCR002C 0.541 | YLR237W 3.5 | YMR251W-A 0.286 | YFR031C-A 0.381 | YNL015W 1.84 | YML026C 1.64 | YDR399W 2.04 | YPR132W 1.76 | YEL060C 0.535 | YML063W 0.482 | YLR109W 0.271 | YGL036W 0.643 | YDR382W 0.349 | YER117W 2.43 | YER081W 0.632 | YDR070C 0.503 | YKR093W 0.526 | YIL052C 0.379 | YFR053C 0.642 | YBL087C 1.71 | YLL039C 0.576 | YPL265W 0.542 | YOL052C-A 2.31
